Experimental data reported in patent US20100152129A1 (priority 2008, published 2010).
Where two headings read alike, the source gives them in different places.

Experiments:
Panc-1 cells [1] = assay: Protein expression using high content cell imaging system, and efficacy score; format: cell-based; details: for Efficacy score: cumulative over proteins of Table 7
Method: The data was generated using cell imaging system, where, cells after drug exposure were treated with protein specific antibody, followed by detection markers for the antibody. The images were generated and protein levels quantitated as an indication of drug effect.
Methodology: Panc-1 cells were seeded at a density of 5000 cells per well in 96 well plates and allowed recovery for 24 hrs in 5% CO2 incubator. After recovery, cells were challenged with Gemcitabine (IC30) for 24 hrs. After 24 hrs Gemcitabine was removed and fresh medium was added. […] The combination efficacy was identified against single treatments. At the end of the experiment Panc-1 cells were fixed and permeabilized. All the primary antibodies were added at a concentration according to manufacture protocol. After one hour incubation the cells were washed three times and labeled with secondary antibodies tagged with Dye Light 548 and nucleus was stained with Hoechest3342. After antibody labeling, cells were stained with the Cellomics whole Cell Stain Green to identify the cell's cytoplasmic area. Then all the plates were scanned in Cellomics ArrayScan® VTI HCS Reader. The results were analyzed using software that is designed for measuring the read from the imaging system.
Expression of proteins listed in Table 7 were determined in terms of fluorescence unit obtained by using target activation algorithm from High content imaging system from Cellomics. • Protein expression data expressed as fluorescent units from Table 7 were used to generate expression ratio by comparing drug treatments (individual or combination) against the normal control with no drug treatment. The ratio of expression which is considered as dys-regulation (1.5 fold above or below the range for up-regulation and down regulation respectively) is subtracted from the normal range (±1.5) and is used to measure the efficacy score.
Expression ratio=protein expression during drug treatment/protein expression under normal control.
Efficacy score =Cumulative score (expression ratio−±1.50) for all proteins.

Panc-1 cells [2] = assay: CCK-8 based cytotoxicity assay; format: cell-based; details: Gem 10 nM
Source text: CCK-8 based cytotoxicity assay is a sensitive nonradioactive colorimetric assay for determining the number of viable cells in cell proliferation and cytotoxicity assays. WST-8 (2-(2-methoxy-4-nitrophenyl)-3-(4-nitrophenyl)-5-(2,4-disulfophenyl)-2H tetrazolium, monosodium salt) is bioreduced by cellular dehydrogenases to an orange formazan product that is soluble in tissue culture medium. The amount of formazan produced is directly proportional to the number of living cells.
Test System: The Panc-1 cell line was procured from ATCC (American Tissue type Culture Collection USA, catalog number: CRL-1469) and the frozen vial was stored in liquid nitrogen container.
Panc-1 cells were seeded at a density of 3000 cells/well in a 96 well plate and allowed to recover for 24 hrs in a CO2 incubator at 37° C. […] The final DMSO concentration was 0.5% in wells. Plates were incubated for 24, 48, and 72 hrs. At the end of incubation CCK-8 was added and kept at 37° C. for 3 hrs following which absorbance was measured at 450 nm.

Panc1 cells = details: human
[3] = 6 hours post treatment, control 1
[4] = 6 hours post treatment, control 3
[5] = 6 hours post treatment, control 6
[6] = 6 hours post treatment, control 7
[7] = 6 hours post treatment, control 8
[8] = 6 hours post treatment, control 74
[9] = 6 hours post treatment, control 80
[10] = 6 hours post treatment, control 147
[11] = 6 hours post treatment, control 501
[12] = 6 hours post treatment, control 627
[13] = 6 hours post treatment, control 635
[14] = 6 hours post treatment, control 819
[15] = 6 hours post treatment, control 829
[16] = 6 hours post treatment, control 830
[17] = 6 hours post treatment, control 1240
[18] = 16 hours post treatment, control 13
[19] = 16 hours post treatment, control 54
[20] = 16 hours post treatment, control 64
[21] = 16 hours post treatment, control 67
[22] = 16 hours post treatment, control 76
[23] = 16 hours post treatment, control 77
[24] = 16 hours post treatment, control 90
[25] = 16 hours post treatment, control 100
[26] = 16 hours post treatment, control 202
[27] = 16 hours post treatment, control 579
[28] = 16 hours post treatment, control 644
[29] = 16 hours post treatment, control 711
[30] = 16 hours post treatment, control 718
[31] = 16 hours post treatment, control 929
[32] = 16 hours post treatment, control 1109
[33] = 16 hours post treatment, control 2583
[34] = 36 hours post treatment, control 19
[35] = 36 hours post treatment, control 96
[36] = 36 hours post treatment, control 98
[37] = 36 hours post treatment, control 100
[38] = 36 hours post treatment, control 265
[39] = 36 hours post treatment, control 715
[40] = 36 hours post treatment, control 722
[41] = 36 hours post treatment, control 1093
[42] = 36 hours post treatment, control 1316
[43] = 36 hours post treatment, control 1410
[44] = 36 hours post treatment, control 1441
[45] = 36 hours post treatment, control 2840

CN1CC[C@@H](c2c(O)cc(O)c3c(=O)cc(-c4ccccc4Cl)oc23)[C@@H]1CO.Cl (relative stereo) [P276-00, (+)-trans-2-(2-Chloro-phenyl)-5,7-dihydroxy-8-(2-hydroxy-methyl-1-methyl-pyrrolidin-3-y1)-chromen-4-one hydrochloride] was tested, and the PTN protein expression (Panc-1 cells [1]; [3]) was 2 fluorescence units, the GADD45-α protein expression (Panc-1 cells [1]; [4]) was 10 fluorescence units and the ID1 protein expression (Panc-1 cells [1]; [4]) was 1 fluorescence units. For the same molecule, the P27 protein expression (Panc-1 cells [1]; [5]) was 7 fluorescence units, the CDC25B protein expression (Panc-1 cells [1]; [6]) was 2 fluorescence units and the CDKN2A protein expression (Panc-1 cells [1]; [7]) was 76 fluorescence units. The CCND1 protein expression (Panc-1 cells [1]; [8]) was 84 fluorescence units, the GAPDH protein expression (Panc-1 cells [1]; [9]) was 96 fluorescence units and the CASP3 protein expression (Panc-1 cells [1]; [10]) was 152 fluorescence units. For the same molecule, the MMP-1 protein expression (Panc-1 cells [1]; [11]) was 618 fluorescence units, the COX15 protein expression (Panc-1 cells [1]; [12]) was 907 fluorescence units and the COX2 protein expression (Panc-1 cells [1]; [13]) was 406 fluorescence units. For the same molecule, the BAX protein expression (Panc-1 cells [1]; [14]) was 700 fluorescence units, the VEGF protein expression (Panc-1 cells [1]; [15]) was 618 fluorescence units and the BCL2 protein expression (Panc-1 cells [1]; [16]) was 376 fluorescence units. The pRB protein expression (Panc-1 cells [1]; [17]) was 1540 fluorescence units, the Efficacy score (Panc-1 cells [1]; 6 hours) was 4.7 and the GADD45-α protein expression (Panc-1 cells [1]; [18]) was 23 fluorescence units. For the same molecule, the CDC25B protein expression (Panc-1 cells [1]; [19]) was 15 fluorescence units, the CDKN2A protein expression (Panc-1 cells [1]; [20]) was 9 fluorescence units and the P27 protein expression (Panc-1 cells [1]; [21]) was 12 fluorescence units. It also gave a PTN protein expression (Panc-1 cells [1]; [22]) of 12 fluorescence units, an ID1 protein expression (Panc-1 cells [1]; [23]) of 18 fluorescence units and a CCND1 protein expression (Panc-1 cells [1]; [24]) of 46 fluorescence units. For the same molecule, the GAPDH protein expression (Panc-1 cells [1]; [25]) was 100 fluorescence units, the CASP3 protein expression (Panc-1 cells [1]; [26]) was 607 fluorescence units and the VEGF protein expression (Panc-1 cells [1]; [27]) was 264 fluorescence units. It also gave a BCL2 protein expression (Panc-1 cells [1]; [28]) of 81 fluorescence units, a BAX protein expression (Panc-1 cells [1]; [29]) of 644 fluorescence units and a COX15 protein expression (Panc-1 cells [1]; [30]) of 852 fluorescence units. For the same molecule, the MMP-1 protein expression (Panc-1 cells [1]; [31]) was 264 fluorescence units, the COX2 protein expression (Panc-1 cells [1]; [32]) was 375 fluorescence units and the pRB protein expression (Panc-1 cells [1]; [33]) was 1400 fluorescence units. It also gave an Efficacy score (Panc-1 cells [1]; 16 hours) of 10.8, a GADD45-α protein expression (Panc-1 cells [1]; [34]) of 31 fluorescence units and a P27 protein expression (Panc-1 cells [1]; [35]) of 5 fluorescence units. The CCND1 protein expression (Panc-1 cells [1]; [36]) was 25 fluorescence units, the CDC25B protein expression (Panc-1 cells [1]; [36]) was 4 fluorescence units and the GAPDH protein expression (Panc-1 cells [1]; [36]) was 2 fluorescence units. It also gave an ID1 protein expression (Panc-1 cells [1]; [36]) of 6 fluorescence units, a PTN protein expression (Panc-1 cells [1]; [37]) of 100 fluorescence units and a CASP3 protein expression (Panc-1 cells [1]; [38]) of 670 fluorescence units. For the same molecule, the BAX protein expression (Panc-1 cells [1]; [39]) was 1120 fluorescence units, the COX15 protein expression (Panc-1 cells [1]; [40]) was 1327 fluorescence units and the VEGF protein expression (Panc-1 cells [1]; [41]) was 355 fluorescence units. It also gave an MMP-1 protein expression (Panc-1 cells [1]; [42]) of 355 fluorescence units, a BCL2 protein expression (Panc-1 cells [1]; [43]) of 374 fluorescence units and a CDKN2A protein expression (Panc-1 cells [1]; [44]) of 707 fluorescence units. For the same molecule, the pRB protein expression (Panc-1 cells [1]; [45]) was 1657 fluorescence units and the Efficacy score (Panc-1 cells [1]; 36 hours) was 11.1.
For Nc1ccn([C@@H]2O[C@H](CO)[C@@H](O)C2(F)F)c(=O)n1 [Gemcitabine, 2′, 2′-difluorodeoxycytidine], the “% Cytotoxicity” value (Panc-1 cells [2]; 24 hrs) was 21.997%, the “% Cytotoxicity” value (Panc-1 cells [2]; 48 hrs) was 27.571% and the “% Cytotoxicity” value (Panc-1 cells [2]; 72 hrs) was 31.47%. The “% Cytotoxicity” value (Panc-1 cells [2]; 72 hrs, listed as Gem) was 31.471%, the “% Cytotoxicity in Panc1 cells” value (Panc1 cells; 6 h) was 2.31% and the “% Cytotoxicity in Panc1 cells” value (Panc1 cells; 16 h) was 6.54%. For the same molecule, the “% Cytotoxicity in Panc1 cells” value (Panc1 cells; 36 h) was 7.23%, the PTN protein expression (Panc-1 cells [1]; [3]) was 6 fluorescence units and the GADD45-α protein expression (Panc-1 cells [1]; [4]) was 4 fluorescence units. For the same molecule, the ID1 protein expression (Panc-1 cells [1]; [4]) was 7 fluorescence units, the P27 protein expression (Panc-1 cells [1]; [5]) was 4 fluorescence units and the CDC25B protein expression (Panc-1 cells [1]; [6]) was 8 fluorescence units. The CDKN2A protein expression (Panc-1 cells [1]; [7]) was 60 fluorescence units, the CCND1 protein expression (Panc-1 cells [1]; [8]) was 83 fluorescence units and the GAPDH protein expression (Panc-1 cells [1]; [9]) was 84 fluorescence units. It also gave a CASP3 protein expression (Panc-1 cells [1]; [10]) of 115 fluorescence units, an MMP-1 protein expression (Panc-1 cells [1]; [11]) of 448 fluorescence units and a COX15 protein expression (Panc-1 cells [1]; [12]) of 1100 fluorescence units. For the same molecule, the COX2 protein expression (Panc-1 cells [1]; [13]) was 462 fluorescence units, the BAX protein expression (Panc-1 cells [1]; [14]) was 892 fluorescence units and the VEGF protein expression (Panc-1 cells [1]; [15]) was 448 fluorescence units. The BCL2 protein expression (Panc-1 cells [1]; [16]) was 630 fluorescence units, the pRB protein expression (Panc-1 cells [1]; [17]) was 1318 fluorescence units and the Efficacy score (Panc-1 cells [1]; 6 hours) was 1.6. For the same molecule, the GADD45-α protein expression (Panc-1 cells [1]; [18]) was 70 fluorescence units, the CDC25B protein expression (Panc-1 cells [1]; [19]) was 50 fluorescence units and the CDKN2A protein expression (Panc-1 cells [1]; [20]) was 57 fluorescence units. For the same molecule, the P27 protein expression (Panc-1 cells [1]; [21]) was 72 fluorescence units, the PTN protein expression (Panc-1 cells [1]; [22]) was 68 fluorescence units and the ID1 protein expression (Panc-1 cells [1]; [23]) was 62 fluorescence units. For the same molecule, the CCND1 protein expression (Panc-1 cells [1]; [24]) was 66 fluorescence units, the GAPDH protein expression (Panc-1 cells [1]; [25]) was 98 fluorescence units and the CASP3 protein expression (Panc-1 cells [1]; [26]) was 570 fluorescence units. For the same molecule, the VEGF protein expression (Panc-1 cells [1]; [27]) was 604 fluorescence units, the BCL2 protein expression (Panc-1 cells [1]; [28]) was 693 fluorescence units and the BAX protein expression (Panc-1 cells [1]; [29]) was 926 fluorescence units. It also gave a COX15 protein expression (Panc-1 cells [1]; [30]) of 1134 fluorescence units, an MMP-1 protein expression (Panc-1 cells [1]; [31]) of 604 fluorescence units and a COX2 protein expression (Panc-1 cells [1]; [32]) of 1151 fluorescence units. It also gave a pRB protein expression (Panc-1 cells [1]; [33]) of 1931 fluorescence units, an Efficacy score (Panc-1 cells [1]; 16 hours) of 7.6 and a GADD45-α protein expression (Panc-1 cells [1]; [34]) of 51 fluorescence units. It also gave a COX2 protein expression (Panc-1 cells [1]; 36 hours post treatment, control 86) of 55 fluorescence units, a P27 protein expression (Panc-1 cells [1]; [35]) of 67 fluorescence units and a CCND1 protein expression (Panc-1 cells [1]; [36]) of 75 fluorescence units. It also gave a CDC25B protein expression (Panc-1 cells [1]; [36]) of 29 fluorescence units, a GAPDH protein expression (Panc-1 cells [1]; [36]) of 59 fluorescence units and an ID1 protein expression (Panc-1 cells [1]; [36]) of 26 fluorescence units. The PTN protein expression (Panc-1 cells [1]; [37]) was 94 fluorescence units, the CASP3 protein expression (Panc-1 cells [1]; [38]) was 633 fluorescence units and the BAX protein expression (Panc-1 cells [1]; [39]) was 1783 fluorescence units. For the same molecule, the COX15 protein expression (Panc-1 cells [1]; [40]) was 1990 fluorescence units, the VEGF protein expression (Panc-1 cells [1]; [41]) was 807 fluorescence units and the MMP-1 protein expression (Panc-1 cells [1]; [42]) was 807 fluorescence units. It also gave a BCL2 protein expression (Panc-1 cells [1]; [43]) of 698 fluorescence units, a CDKN2A protein expression (Panc-1 cells [1]; [44]) of 1483 fluorescence units and a pRB protein expression (Panc-1 cells [1]; [45]) of 2188 fluorescence units. It also gave an Efficacy score (Panc-1 cells [1]; 36 hours) of 7.4.
